The source of these data is US7416864B2, “Method for treating dyskinesia” (Schwarz Pharma AG, priority 2004, dated 2008).

This assay has as its system Reserpine-Induced Tardive Dyskinesia in Mice. Put plainly: Reserpine-induced tardive dyskinesia in mice, vacuous chewing movements (VCM) count. Format: in vivo. The following applies: for VCM frequency per 10 min. Mean ± S.E.M.: 1 hour post-administration, male CD1 mice. The protocol: Male CD1 mice (Charles River Laboratories, France), about 3 month-old were used. During the acclimatization period, animals were housed 5 per cage, in Makrolon type IlIl cages, in the animal room (temperature: 20±2° C., humidity: minimum 45%, air changes: >12 per hour, light/dark cycle of 12 h/12 h [on at 7:00 A.M:]. Animals were allowed a minimum of 5 days period before experiment for acclimatization.
Reserpine (Sigma) was dissolved in glacial acetic acid, diluted in water and administered s.c. at 1 mg/kg. 2 injections were given separated by 48 h. SPM 927 was studied at 3 doses (3, 10 and 30 mg/kg; i.p.) given as a single injection. Clonazepam was administered at 1 mg/kg, i.p. (3).
Reserpine was given twice (Day 1 and Day 3) and SPM 927 was administered 24 h after the last injection of reserpine (Day 4). Behavioral assessment was carried out 1 hour after drug injection (for 10 min). For the behavioral assessment, animals were placed in a plexiglass cage and after 5 min period of habituation, vacuous chewing movements (VCM) were counted for 10 min. VCM occurring during a grooming period were not taken into account.
Results are expressed as means±S.E.M.s of ten individual values. Statistical analyses was done with ANOVA (one way) and Dunnett's t-test. Significance was considered as p<0.05.

Entries after “also recorded” stand apart in the source; their conditions may differ.

Consider `COC[C@@H](NC(C)=O)C(=O)NCc1ccccc1` [SPM 927, (R)-2-acetamide-N-benzyl-3-methoxypropionamide], for which, where the note is “3 mg/kg i.p., lowest dose”, the “effect on reserpine-induced dyskinesia (in words)” value is reported as “little or no effect”. For the same compound, the “effect on number of vacuous chewing movements (in words)” value (10 mg/kg i.p.) is “reduced the number of vacuous chewing movements” and the “effect on number of vacuous chewing movements (in words)” value (30 mg/kg i.p., highest dose, statistically significant (p<0.05 versus vehicle group)) is given as “reduced the number of vacuous chewing movements”. Also, the “VCM frequency per 10 min. Mean ± S.E.M.” value is reported as 48.6 ± 10.6 per 10 min (Reserpine 1 mg/kg s.c. + SPM 927 3 mg/kg i.p., reserpine + vehicle group 41.4 ± 6.4); 26.6 ± 5.7 per 10 min (Reserpine 1 mg/kg s.c. + SPM 927 10 mg/kg i.p., reserpine + vehicle group 41.4 ± 6.4); 23.9 ± 7.9 per 10 min (Reserpine 1 mg/kg s.c. + SPM 927 30 mg/kg i.p., p < 0.05 versus reserpine + vehicle group (41.4 ± 6.4)). The “overall effect on reserpine-induced tardive dyskinesia / vacuous chewing movements (in words)” value (mice, no dose stated) is on record as “attenuates reserpine induced vacuous chewing movements; also recorded: significant efficacy in reducing tardive dyskinesia”.
